The values that follow come from patent US20250205195A1, “BENZYLOXY-BENZYLAMINYL AMINO ACID DERIVATIVE FOR ADJUSTING TSLP/TSLPR SIGNAL TRANSMISSION” (AMTIXBIO CO., LTD., priority 2021, published 2025).

For assay [1], the system named is interleukin-4 (IL-4). Kind of assay: PMA/ionomycin-induced interleukin-4 in RBL-2H3 cells (ELISA). It is filed as cell-based, rat. The conditions noted are these: RBL-2H3 cells, 0, 1, 2, 4 and 8 µg/mL, 24 h. As to the method: Rat basophilic leukemia cells RBL-2H3 (obtained from the Korean Cell Line Bank) were seeded at an initial density of 2×10^5 cells/well in a 48-well plate and cultured at 37° C. for 16 to 24 hours. Subsequently, compound 27 of the present invention was added to the RBL-2H3 cell culture medium at final concentrations of 0, 1, 2, 4, and 8 µg/mL and the cells were cultured at 37° C. for 1 hour. Next, to induce interleukin-4, the culture medium was treated with PMA ([…], Sigma-Aldrich, USA) and ionomycin (Sigma-Aldrich, USA) to final concentrations of 50 ng/mL and […], respectively, and the cells were cultured for an additional 24 hours at 37° C. The culture supernatant was then collected, and the amount of induced interleukin-4 from RBL-2H3 cells was determined using an ELISA kit (LABIS KOMA, South Korea) according to the manufacturer's instructions. FIG. 2 (a) represents the results.
Background: ELISA stands for enzyme-linked immunosorbent assay.

In assay [2] the test system is interleukin-13 (IL-13). Kind of assay: PMA/ionomycin-induced interleukin-13 in RBL-2H3 cells (ELISA). It counts as cell-based, rat. The conditions noted are these: RBL-2H3 cells, 0, 1, 2, 4 and 8 µg/mL, 24 h. How it is done:
RBL-2H3 cells were seeded at an initial density of 2×10^5 cells/well in a 24-well plate and cultured at 37° C. for 16 to 24 hours. Subsequently, compound 27 of the present invention was added to the RBL-2H3 cell culture medium at final concentrations of 0, 1, 2, 4, and 8 µg/mL, and the cells were cultured at 37° C. for 1 hour. Next, to induce interleukin-13, the culture medium was treated with PMA ([…], Sigma-Aldrich, USA) and ionomycin (Sigma-Aldrich, USA) to final concentrations of 50 ng/mL and […], respectively, and the cells were cultured for an additional 24 hours at 37° C. The culture supernatant was then collected, and the amount of induced interleukin-13 from RBL-2H3 cells was determined using an ELISA kit (R&D Systems, USA) according to the manufacturer's instructions. FIG. 2 (b) represents the results. […] This indicates the anti-inflammatory effect of compound 27 of the present invention.

For assay [3], the system named is TSLP. In words: TNF-α-induced TSLP in HaCaT cells (ELISA). It counts as cell-based, human. As to the method: Human keratinocyte HaCaT cells (obtained from the Korean Cell Line Bank) were seeded in a 12-well plate at an initial density of 2×10^5 cells/well and cultured at 37° C. for 16 to 24 hours. FK506 (Sigma), compounds 27 and 29 of the present invention were then added to the HaCaT cell culture medium at final concentrations of 0, 1, 2, 4, and 8 µg/mL, and the cells were cultured at 37° C. for 1 hour. Next, to induce TSLP, the culture medium was treated with TNF-α (Sigma-Aldrich, USA) to a final concentration of 100 ng/mL, and the cells were cultured for an additional 24 hours at 37° C. The culture supernatant was collected, and the amount of induced TSLP from HaCaT cells was determined using an ELISA kit (R&D Systems, USA) according to the manufacturer's instructions. […] Under the same conditions, to compare the TSLP reduction efficiency R.R. (Reduction rate) of compound 27, positive control compound and compound 29, equal amounts of compounds 27, 29 and FK506 (Sigma-Aldrich, USA) were pretreated for 1 hour. The amount of TSLP released into the culture supernatant from HaCaT cells stimulated by TNF-α was quantitatively analyzed and presented in Table 3 and FIG. 3 (c).

Assay [4] has as its system interleukin-6 (IL-6). In words: TNF-α/IFN-induced interleukin-6 in HaCaT keratinocytes (ELISA). It is filed as cell-based, human. The conditions noted are these: HaCaT cells, 0, 1, 2, 4 and 8 µg/mL, TNF-α and IFN 50 ng/mL each, 24 h. How it is done:
Furthermore, human keratinocyte HaCaT cells (obtained from the Korean Cell Line Bank) were seeded at an initial density of 2×10^5 cells/well in a 12-well plate and cultured at 37° C. for 16 to 24 hours. The compound 27 of the present invention was then added to the HaCaT cell culture medium at final concentrations of 0, 1, 2, 4, and 8 µg/mL and the cells were cultured at 37° C. for 1 hour. Subsequently, to induce interleukin-6, the culture medium was treated with TNF-α (Sigma-Aldrich, USA) and […] (Sigma-Aldrich, USA) to final concentrations of 50 ng/mL each, and the cells were cultured for an additional 24 hours at 37° C. Next, the culture supernatant was collected, and the amount of induced interleukin-6 from HaCaT cells was determined using an ELISA kit (LABIS KOMA, South Korea) according to the manufacturer's instructions.
Human keratinocyte HaCaT cells (obtained from the Korean Cell Line Bank) were seeded in a 12-well plate at an initial density of 2×10^5 cells/well and cultured at 37° C. for 16 to 24 hours. […] The culture supernatant was collected, and the amount of induced interleukin-6 from HaCaT cells was determined using an ELISA kit (LABIS KOMA, South Korea) according to the manufacturer's instructions.

For assay [5], the system named is DNFB-induced atopic dermatitis mice. Kind of assay: DNFB-induced atopic dermatitis mouse model, itch scratching test. It counts as in vivo, ICR mice. The conditions noted are these: 1˜10 mg/kg, ip, po or topical, daily for one week, 30 min recording, vs control group. How it is done: ICR mice (Supplier: Koatech, Gyeonggi, South Korea, Male, 9 weeks old) were used. After acclimatization to the environment for one week, the mice were divided into treatment and control groups, and then hair was removed from the area (dorsal area) where the drug was applied on day 0, 0.5% DNFB (50 μL) diluted in 99% acetone, was applied to the dorsal area. Subsequently, on days 5, 8, 10 and 14, additional applications of 0.2% DNFB (20 μL) were applied to induce atopic dermatitis. After 7 days of DNFB treatment, once skin lesions were confirmed in all mice, compound 27 of the present invention was administered daily for one week via intraperitoneal (ip), oral (po), or topical (dermal) routes.
For the groups treated with the compound 27 of the present invention (1˜10 mg/kg) and the control group, mice were separated on days 5, 8, 11 and 15, acclimatized for 1 hour, and their scratching behavior patterns were recorded and analyzed for 30 minutes.

Where [6] appears, read: HaCaT culture supernatant, TNF-α stimulated, 1 h pretreatment, equal amounts of compounds.

Regarding `CCC(NC)C(=O)NCc1ccc(OCc2ccc(C(F)(F)F)cc2)cc1` (racemic) [Compound 27, (R)/(S)-2-(methylamino)-N-(4-((4-trifluoromethyl)benzyl)oxy)benzyl)butanamide], the “amount of induced interleukin-4” value in assay [1] was “decreased proportionally”. Also, in assay [2], the “amount of induced interleukin-13” value was “decreased proportionally”. The “amount of induced TSLP with increasing concentration” value in assay [3] (HaCaT cells, 0, 1, 2, 4 and 8 µg/mL, TNF-α 100 ng/mL, 24 h) was “decreased”. For the same compound, in assay [3] (setting [6]), the “R.R (Reduction rate) of TSLP” value is given as 54% and the TSLP was 234 ng/mL. The “amount of induced interleukin-6” value in assay [4] is given as “decreased”. In addition, the scratching frequency result in assay [5] is “significantly decreased”.
